We go through 14 compounds from US9139557B2, “Carboxamide compounds and their use as calpain inhibitors” (Abbott GmbH & Co. KG, priority 2006, dated 2015).

Common to all, as to format: biochemical
One test concerns the target T1, cathepsin L (Homo sapiens, UniProt P07711).
T1 construct: cathepsin L—isolated from human liver; purchased Calbiochem 219402; host or cells: human liver (tissue isolate)
In words: Cathepsin L enzyme inhibition in vitro (kinetic fluorescence assay). The settings on record: Ki(cathepsin L)/Ki(calpain) ratio. A digest of the protocol:
(§1)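 Kinetic fluorescence (ex 390/em 460 nm), RT. Calpain-I: 20 nM erythrocyte-derived, 100 μM Suc-Leu-Tyr-AMC, imidazole/CaCl2, pH 7.3. Cathepsins, pH 6.0 MES/EDTA/cysteine: B 0.25 nM liver, 100 μM Z-Phe-Arg-AMC; L 1 nM liver, 2 μM Z-Phe-Arg-AMC; S 0.5 nM recombinant, 20 μM Z-Val-Val-Arg-AMC. Cheng-Prusoff Ki, mean of 2–4 curves.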

The next test has as its target T2, cathepsin B (Homo sapiens, UniProt P07858).
T2 construct: cathepsin B—isolated from human liver; purchased Calbiochem 219362; host or cells: human liver (tissue isolate)
In words: Cathepsin B enzyme inhibition in vitro (kinetic fluorescence assay). The following applies: Ki(cathepsin B)/Ki(calpain) ratio. A digest of the protocol: as §1

The next test deals with T3, cathepsin S (Homo sapiens, UniProt P25774).
T3 construct: purchased Calbiochem 219343; host or cells: E. coli
In words: Cathepsin S enzyme inhibition in vitro (kinetic fluorescence assay). The following applies: Ki(cathepsin S)/Ki(calpain) ratio. The essentials: as §1

In another test the target is T4, cathepsin K (Homo sapiens, UniProt P43235).
T4 construct: purchased Calbiochem 342001; host or cells: E. coli
T4 sequence (P43235 115-329): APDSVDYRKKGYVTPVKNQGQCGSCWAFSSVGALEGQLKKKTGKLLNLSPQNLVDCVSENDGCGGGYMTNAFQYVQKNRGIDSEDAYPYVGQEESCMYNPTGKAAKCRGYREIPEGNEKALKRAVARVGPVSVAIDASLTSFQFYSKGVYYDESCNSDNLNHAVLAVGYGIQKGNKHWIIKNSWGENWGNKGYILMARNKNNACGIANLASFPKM
In words: Cathepsin K enzyme inhibition in vitro (kinetic fluorescence assay). The settings on record: Ki(cathepsin K)/Ki(calpain) ratio.

T3 sequence (P25774 115-331): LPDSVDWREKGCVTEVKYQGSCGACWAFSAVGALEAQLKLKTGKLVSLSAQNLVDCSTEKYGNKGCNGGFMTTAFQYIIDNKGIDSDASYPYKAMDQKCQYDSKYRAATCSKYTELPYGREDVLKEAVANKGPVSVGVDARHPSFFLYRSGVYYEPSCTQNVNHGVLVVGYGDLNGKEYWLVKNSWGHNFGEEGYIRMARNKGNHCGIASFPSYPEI
T1 sequence (P07711 114-333): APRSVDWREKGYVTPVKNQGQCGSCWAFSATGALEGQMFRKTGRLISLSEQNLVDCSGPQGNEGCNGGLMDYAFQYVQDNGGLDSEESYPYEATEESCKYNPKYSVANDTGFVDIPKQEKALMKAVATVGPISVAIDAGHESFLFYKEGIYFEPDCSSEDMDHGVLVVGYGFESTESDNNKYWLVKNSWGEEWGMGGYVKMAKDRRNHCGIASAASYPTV

`COc1ccc(CC(NC(=O)c2cccnc2-n2ccc(-c3ccc(F)cc3)n2)C(=O)C(N)=O)cc1` (centres unmarked) [Example 81, N-[3-Amino-1-(4-methoxybenzyl)-2,3-dioxopropyl]-2-[3-(4-fluorophenyl)-1H-pyrazol-1-yl]nicotinamide]: at cathepsin L, the “Sel cat. L” value is recorded as “++ (++ means a Ki(cathepsin L)/Ki(calpain) ratio of ≧50)”. At cathepsin B, the “Sel cat. B” value is reported as “+ (+ means 10≦Ki(cathepsin B)/Ki(calpain)<30)”. For the same compound, the “Sel cat. S” value on cathepsin S is “++ (++ means a Ki(cathepsin S)/Ki(calpain) ratio of ≧100)”. Besides, at cathepsin K, the “Sel cat. K” value was “+ (+ means 10≦Ki(cathepsin K)/Ki(calpain)<30)”.

As for “N-[3-Amino-2,3-dioxo-1-(phenylmethyl)propyl]-2-[3-(3,5-dichlorophenyl)-1H-pyrazol-1-yl]pyridine-3-carboxamide [Example 89]”, the “Sel cat. L” value at cathepsin L is given as “++ (++ means a Ki(cathepsin L)/Ki(calpain) ratio of ≧50)”. At cathepsin B, the “Sel cat. B” value is given as “+ (+ means 10≦Ki(cathepsin B)/Ki(calpain)<30)”. Also, the “Sel cat. S” value at cathepsin S was “++ (++ means a Ki(cathepsin S)/Ki(calpain) ratio of ≧100)”. Further, at cathepsin K, the “Sel cat. K” value was “+ (+ means 10≦Ki(cathepsin K)/Ki(calpain)<30)”.

For the compound `NC(=O)C(=O)C(Cc1ccccc1)NC(=O)c1cccnc1-n1ccc(-c2ccc3c(c2)OC(F)(F)O3)n1` (centres unmarked) [Example 118, N-[3-Amino-2,3-dioxo-1-(phenylmethyl)propyl]-2-[3-(2,2-difluoro-1,3-benzodioxol-5-yl)-1H-pyrazol-1-yl]pyridine-3-carboxamide], the “Sel cat. L” value at cathepsin L is listed as “++ (++ means a Ki(cathepsin L)/Ki(calpain) ratio of ≧50)”. In addition, the “Sel cat. B” value on cathepsin B was “++ (++ means a Ki(cathepsin B)/Ki(calpain) ratio of ≧30)”. On cathepsin S, the “Sel cat. S” value is “++ (++ means a Ki(cathepsin S)/Ki(calpain) ratio of ≧100)”. Besides, the “Sel cat. K” value on cathepsin K is given as “+ (+ means 10≦Ki(cathepsin K)/Ki(calpain)<30)”.

Consider `NC(=O)C(=O)C(Cc1ccccc1)NC(=O)c1cccnc1-n1ccc(-c2cccc(OC(F)(F)F)c2)n1` (centres unmarked) [Example 168, N-[3-Amino-2,3-dioxo-1-(phenylmethyl)propyl]-2-(3-{3-[(trifluoromethyl)oxy]phenyl}-1H-pyrazol-1-yl)pyridine-3-carboxamide], for which, at cathepsin L, the “Sel cat. L” value is given as “++ (++ means a Ki(cathepsin L)/Ki(calpain) ratio of ≧50)”. For the same compound, the “Sel cat. B” value at cathepsin B is on record as “+ (+ means 10≦Ki(cathepsin B)/Ki(calpain)<30)”. The “Sel cat. S” value on cathepsin S is on record as “++ (++ means a Ki(cathepsin S)/Ki(calpain) ratio of ≧100)”. Further, the “Sel cat. K” value at cathepsin K is reported as “+ (+ means 10≦Ki(cathepsin K)/Ki(calpain)<30)”.

In the case of `COc1ccc(CC(NC(=O)c2cccnc2-n2ccc(-c3ccc(F)cc3F)n2)C(=O)C(N)=O)cc1` (centres unmarked) [Example 97, N-(3-Amino-1-{[4-(methyloxy)phenyl]methyl}-2,3-dioxopropyl)-2-[3-(2,4-difluorophenyl)-1H-pyrazol-1-yl]pyridine-3-carboxamide], at cathepsin L, the “Sel cat. L” value is listed as “++ (++ means a Ki(cathepsin L)/Ki(calpain) ratio of ≧50)”. Moreover, the “Sel cat. B” value at cathepsin B is listed as “++ (++ means a Ki(cathepsin B)/Ki(calpain) ratio of ≧30)”. Also, at cathepsin S, the “Sel cat. S” value was “++ (++ means a Ki(cathepsin S)/Ki(calpain) ratio of ≧100)”. On cathepsin K, the “Sel cat. K” value was “+ (+ means 10≦Ki(cathepsin K)/Ki(calpain)<30)”.

On to `NC(=O)C(=O)C(Cc1ccccc1)NC(=O)c1cccnc1-n1ccc(-c2ccc(N3CCOCC3)cc2Cl)n1` (centres unmarked) [Example 99, N-[3-Amino-2,3-dioxo-1-(phenylmethyl)propyl]-2-[3-(2-chloro-4-morpholin-4-ylphenyl)-1H-pyrazol-1-yl]pyridine-3-carboxamide], for which, at cathepsin L, the “Sel cat. L” value is “++ (++ means a Ki(cathepsin L)/Ki(calpain) ratio of ≧50)”. Moreover, the “Sel cat. B” value at cathepsin B was “++ (++ means a Ki(cathepsin B)/Ki(calpain) ratio of ≧30)”. The “Sel cat. S” value on cathepsin S was “++ (++ means a Ki(cathepsin S)/Ki(calpain) ratio of ≧100)”. In addition, the “Sel cat. K” value at cathepsin K was “++ (++ means a Ki(cathepsin K)/Ki(calpain) ratio of ≧30)”.

`NC(=O)C(=O)C(Cc1ccc(OC(F)(F)F)cc1)NC(=O)c1cccnc1-n1ccc(-c2ccccc2)n1` (centres unmarked) [Example 133]: the “Sel cat. L” value at cathepsin L was “++ (++ means a Ki(cathepsin L)/Ki(calpain) ratio of ≧50)”. The “Sel cat. B” value on cathepsin B is “++ (++ means a Ki(cathepsin B)/Ki(calpain) ratio of ≧30)”. Besides, the “Sel cat. S” value at cathepsin S was “++ (++ means a Ki(cathepsin S)/Ki(calpain) ratio of ≧100)”. Also, the “Sel cat. K” value at cathepsin K is “++ (++ means a Ki(cathepsin K)/Ki(calpain) ratio of ≧30)”.

For `COc1ccc(CC(NC(=O)c2cccnc2-n2ccc(-c3ccc(Cl)cc3Cl)n2)C(=O)C(N)=O)cc1` (centres unmarked) [Example 98, N-(3-Amino-1-{[4-(methyloxy)phenyl]methyl}-2,3-dioxopropyl)-2-[3-(2,4-dichlorophenyl)-1H-pyrazol-1-yl]pyridine-3-carboxamide], on cathepsin L, the “Sel cat. L” value is “++ (++ means a Ki(cathepsin L)/Ki(calpain) ratio of ≧50)”. Further, the “Sel cat. B” value at cathepsin B is given as “++ (++ means a Ki(cathepsin B)/Ki(calpain) ratio of ≧30)”. Moreover, the “Sel cat. S” value at cathepsin S is reported as “++ (++ means a Ki(cathepsin S)/Ki(calpain) ratio of ≧100)”. Also, the “Sel cat. K” value at cathepsin K is “++ (++ means a Ki(cathepsin K)/Ki(calpain) ratio of ≧30)”.

For the compound `NC(=O)C(=O)C(Cc1ccccc1)NC(=O)c1cccnc1-n1ccc(-c2c(F)cc(F)cc2F)n1` (centres unmarked) [Example 116, N-[3-Amino-2,3-dioxo-1-(phenylmethyl)propyl]-2-[3-(2,4,6-trifluorophenyl)-1H-pyrazol-1-yl]pyridine-3-carboxamide], the “Sel cat. L” value on cathepsin L is “++ (++ means a Ki(cathepsin L)/Ki(calpain) ratio of ≧50)”. Also, the “Sel cat. B” value on cathepsin B is listed as “++ (++ means a Ki(cathepsin B)/Ki(calpain) ratio of ≧30)”. Moreover, the “Sel cat. S” value at cathepsin S is recorded as “++ (++ means a Ki(cathepsin S)/Ki(calpain) ratio of ≧100)”. On cathepsin K, the “Sel cat. K” value is given as “+ (+ means 10≦Ki(cathepsin K)/Ki(calpain)<30)”.

On to `Cc1c(Cl)ccc2c1-c1nn(-c3ncccc3C(=O)NC(Cc3ccccc3)C(=O)C(N)=O)cc1CO2` (centres unmarked) [Example 143, N-[3-Amino-2,3-dioxo-1-(phenylmethyl)propyl]-2-(8-chloro-9-methylchromeno[4,3-c]pyrazol-2(4H)-yl)pyridine-3-carboxamide], for which the “Sel cat. L” value at cathepsin L was “++ (++ means a Ki(cathepsin L)/Ki(calpain) ratio of ≧50)”. For the same compound, the “Sel cat. B” value at cathepsin B is “++ (++ means a Ki(cathepsin B)/Ki(calpain) ratio of ≧30)”. Besides, the “Sel cat. S” value on cathepsin S is “++ (++ means a Ki(cathepsin S)/Ki(calpain) ratio of ≧100)”. Further, the “Sel cat. K” value at cathepsin K is reported as “++ (++ means a Ki(cathepsin K)/Ki(calpain) ratio of ≧30)”.

In the case of `COc1ccc2c(c1)OCc1cn(-c3ncccc3C(=O)NC(Cc3ccccc3)C(=O)C(N)=O)nc1-2` (centres unmarked) [Example 142, N-[3-Amino-2,3-dioxo-1-(phenylmethyl)propyl]-2-[7-(methyloxy)chromeno[4,3-c]pyrazol-2(4H)-yl]pyridine-3-carboxamide], on cathepsin L, the “Sel cat. L” value is given as “++ (++ means a Ki(cathepsin L)/Ki(calpain) ratio of ≧50)”. In addition, the “Sel cat. B” value at cathepsin B is “+ (+ means 10≦Ki(cathepsin B)/Ki(calpain)<30)”. Moreover, the “Sel cat. S” value at cathepsin S is “++ (++ means a Ki(cathepsin S)/Ki(calpain) ratio of ≧100)”. Also, at cathepsin K, the “Sel cat. K” value is recorded as “+ (+ means 10≦Ki(cathepsin K)/Ki(calpain)<30)”.

Regarding `COc1ccc(CC(NC(=O)c2cccnc2-n2ccc(-c3cccc4ccccc34)n2)C(=O)C(N)=O)cc1` (centres unmarked) [Example 135, N-(3-Amino-1-{[4-(methyloxy)phenyl]methyl}-2,3-dioxopropyl)-2-(3-naphthalen-1-yl-1H-pyrazol-1-yl)pyridine-3-carboxamide], on cathepsin L, the “Sel cat. L” value is “++ (++ means a Ki(cathepsin L)/Ki(calpain) ratio of ≧50)”. The “Sel cat. B” value on cathepsin B is given as “++ (++ means a Ki(cathepsin B)/Ki(calpain) ratio of ≧30)”. Further, the “Sel cat. S” value at cathepsin S was “++ (++ means a Ki(cathepsin S)/Ki(calpain) ratio of ≧100)”. Moreover, the “Sel cat. K” value at cathepsin K is “++ (++ means a Ki(cathepsin K)/Ki(calpain) ratio of ≧30)”.

Consider `COc1ccc(CC(NC(=O)c2cccnc2-n2ccc(-c3cccc(F)c3Cl)n2)C(=O)C(N)=O)cc1` (centres unmarked) [Example 157, N-(3-Amino-1-{[4-(methyloxy)phenyl]methyl}-2,3-dioxopropyl)-2-[3-(2-chloro-3-fluorophenyl)-1H-pyrazol-1-yl]pyridine-3-carboxamide], for which the “Sel cat. L” value on cathepsin L is reported as “++ (++ means a Ki(cathepsin L)/Ki(calpain) ratio of ≧50)”. The “Sel cat. B” value on cathepsin B is given as “++ (++ means a Ki(cathepsin B)/Ki(calpain) ratio of ≧30)”. The “Sel cat. S” value at cathepsin S is recorded as “++ (++ means a Ki(cathepsin S)/Ki(calpain) ratio of ≧100)”. For the same compound, the “Sel cat. K” value at cathepsin K is “++ (++ means a Ki(cathepsin K)/Ki(calpain) ratio of ≧30)”.

Consider `NC(=O)C(=O)C(Cc1ccccc1)NC(=O)c1cccnc1-n1ccc(-c2ccc(C(F)(F)F)cc2)n1` (centres unmarked) [Example 60, N-(3-Amino-1-benzyl-2,3-dioxopropyl)-2-{3-[4-(trifluoromethyl)phenyl]-1H-pyrazol-1-yl}nicotinamide], for which, on cathepsin L, the “Sel cat. L” value is on record as “++ (++ means a Ki(cathepsin L)/Ki(calpain) ratio of ≧50)”. The “Sel cat. B” value at cathepsin B was “+ (+ means 10≦Ki(cathepsin B)/Ki(calpain)<30)”. Also, the “Sel cat. S” value at cathepsin S is given as “+ (+ means 50≦Ki(cathepsin S)/Ki(calpain)<100)”. Moreover, the “Sel cat. K” value on cathepsin K is listed as “+ (+ means 10≦Ki(cathepsin K)/Ki(calpain)<30)”.
